Reference: ChEMBL document CHEMBL1127946, “The squalestatins: Potent inhibitors of squalene synthase, 3-hydroxymethyl derivatives” (Bioorg Med Chem Lett, 1994)

molecular target: T1, Squalene synthase (Rattus norvegicus, UniProt Q02769); experiment: In vitro inhibition of rat squalene synthase
T1 sequence (Q02769 whole entry): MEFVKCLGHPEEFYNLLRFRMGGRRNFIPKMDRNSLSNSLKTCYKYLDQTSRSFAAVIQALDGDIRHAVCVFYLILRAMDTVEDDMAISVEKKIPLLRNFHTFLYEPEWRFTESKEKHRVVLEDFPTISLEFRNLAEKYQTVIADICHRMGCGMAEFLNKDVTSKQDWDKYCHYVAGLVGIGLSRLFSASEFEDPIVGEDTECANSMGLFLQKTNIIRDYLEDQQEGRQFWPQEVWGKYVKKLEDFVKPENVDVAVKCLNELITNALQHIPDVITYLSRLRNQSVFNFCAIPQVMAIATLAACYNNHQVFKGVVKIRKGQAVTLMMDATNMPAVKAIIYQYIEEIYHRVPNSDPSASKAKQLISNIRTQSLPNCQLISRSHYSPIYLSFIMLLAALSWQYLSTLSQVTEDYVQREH

Compound	IC50
C=C(CC[C@]12O[C@H](CO)[C@@](O)(C(=O)O)[C@](C(=O)O)(O1)[C@H](OC(=O)CCCCCCCC)[C@H]2O)[C@@H](OC(C)=O)[C@H](C)Cc1ccccc1	140 nM
C=C(CC[C@]12O[C@H](CO)[C@@](O)(C(=O)O)[C@](C(=O)O)(O1)[C@H](OC(=O)CCC)[C@H]2O)[C@@H](OC(C)=O)[C@H](C)Cc1ccccc1	800 nM
C=C(CC[C@]12O[C@H](CO)[C@@](O)(C(=O)O)[C@](C(=O)O)(O1)[C@H](O)[C@H]2O)[C@@H](OC(C)=O)[C@H](C)Cc1ccccc1	395 nM
CC[C@H](C)C[C@H](C)CCC(=O)O[C@@H]1[C@@H](O)[C@@]2(CCC(=O)[C@@H](O)[C@H](C)Cc3ccccc3)O[C@H](CO)[C@@](O)(C(=O)O)[C@]1(C(=O)O)O2	740 nM
C=C(CC[C@]12O[C@H](CO)[C@@](O)(C(=O)O)[C@](C(=O)O)(O1)[C@H](OC(=O)CCC(C)C)[C@H]2O)[C@@H](OC(C)=O)[C@H](C)Cc1ccccc1	119 nM
C=C(CC[C@]12O[C@H](CO)[C@@](O)(C(=O)O)[C@](C(=O)O)(O1)[C@H](OC(=O)CCCCCC)[C@H]2O)[C@@H](OC(C)=O)[C@H](C)Cc1ccccc1	245 nM
C=C(CC[C@]12OC[C@@](O)(C(=O)O)[C@](C(=O)O)(O1)[C@H](O)[C@H]2O)[C@@H](OC(C)=O)[C@H](C)Cc1ccccc1	25000 nM

Now those with a lower IC50, led by results:

IC50	Compound
21 nM	C=C(CC[C@]12O[C@H](CO)[C@@](O)(C(=O)O)[C@](C(=O)O)(O1)[C@H](OC(=O)/C=C/[C@@H](C)C[C@@H](C)CC)[C@H]2O)[C@@H](O)[C@H](C)Cc1ccccc1
15 nM	C=C(CC[C@]12O[C@H](CO)[C@@](O)(C(=O)O)[C@](C(=O)O)(O1)[C@H](OC(=O)/C=C/[C@@H](C)C[C@@H](C)CC)[C@H]2O)[C@@H](OC(C)=O)[C@H](C)Cc1ccccc1
44 nM	C=C(CC[C@]12O[C@H](CO)[C@@](O)(C(=O)O)[C@](C(=O)O)(O1)[C@H](OC(=O)CC[C@@H](C)C[C@@H](C)CC)[C@H]2O)[C@@H](OC(C)=O)[C@H](C)Cc1ccccc1
23 nM	C=C(CC[C@]12OC[C@@](O)(C(=O)O)[C@](C(=O)O)(O1)[C@H](OC(=O)/C=C/[C@@H](C)C[C@@H](C)CC)[C@H]2O)[C@@H](OC(C)=O)[C@H](C)Cc1ccccc1
79 nM	C=C(CC[C@]12O[C@H](CO)[C@@](O)(C(=O)OC)[C@](C(=O)O)(O1)[C@H](OC(=O)/C=C/[C@@H](C)C[C@@H](C)CC)[C@H]2O)[C@@H](OC(C)=O)[C@H](C)Cc1ccccc1
22 nM	C=C(CC[C@]12O[C@H](CO)[C@@](O)(C(=O)O)[C@](C(=O)O)(O1)[C@H](OC(=O)CC[C@@H](C)C[C@@H](C)CC)[C@H]2O)[C@@H](O)[C@H](C)Cc1ccccc1
